Test results reported in ChEMBL document CHEMBL1909046, “DrugMatrix in vitro pharmacology data”.
Where a SMILES comes first, the peptide text is derived from it. Bridges are numbered along the chain shown (N, C = ends). [ ]: non-standard residue; d: D form. The star is where a group is joined. Threoninol(2S,3R) = C[C@@H](O)[C@H](CO)N*

Tests used:
[1] = target: Protein kinase C alpha type (Homo sapiens, UniProt P17252); format: cell-based; details: sf9;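 further: inhibition of PKCalpha kinase activity measured in an enzyme assay with histone as the phosphorylation substrate; in other assays of this panel Not Active means under 50% inhibition at 10 µM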
[2] = target: Epidermal growth factor receptor (Homo sapiens, UniProt P00533); test: DRUGMATRIX: Protein Tyrosine Kinase, EGF Receptor enzyme inhibition (substrate: Poly(Glu:Tyr)); format: cell-based, Insect cells; details: insect cells; Not Active = under 50% inhibition at 10 µM
[3] = target: Delta-type opioid receptor (Homo sapiens, UniProt P41143); format: cell membranes, HEK293, Membrane; details: hek293; further: in other assays of this panel Not Active means under 50% inhibition at 10 µM
[4] = target: T1, Muscarinic acetylcholine receptor M2 (Homo sapiens, UniProt P08172); format: cell membranes, CHO-K1, Membrane; details: cho-k1; further: in other assays of this panel Not Active means under 50% inhibition at 10 µM
T1 sequence (P08172 whole entry): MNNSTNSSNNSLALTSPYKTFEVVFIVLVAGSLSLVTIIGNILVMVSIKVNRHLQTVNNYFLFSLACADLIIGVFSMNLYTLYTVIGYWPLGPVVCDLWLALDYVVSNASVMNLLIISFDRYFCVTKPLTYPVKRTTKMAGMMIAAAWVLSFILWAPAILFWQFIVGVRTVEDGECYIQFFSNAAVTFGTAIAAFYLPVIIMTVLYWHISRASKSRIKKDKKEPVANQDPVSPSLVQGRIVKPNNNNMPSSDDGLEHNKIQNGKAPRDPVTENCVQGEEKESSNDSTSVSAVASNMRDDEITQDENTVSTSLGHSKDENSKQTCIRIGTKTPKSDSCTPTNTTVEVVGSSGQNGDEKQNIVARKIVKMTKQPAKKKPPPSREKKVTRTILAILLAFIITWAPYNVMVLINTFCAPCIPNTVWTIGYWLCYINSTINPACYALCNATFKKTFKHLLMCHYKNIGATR

Progesterone receptor = target: T2, Progesterone receptor (Bos taurus, UniProt Q690N0); test: DRUGMATRIX: Progesterone radioligand binding (ligand: [3H] R-5020); format: tissue-based, Uterus; details: Not Active = under 50% inhibition at 10 µM
T2 sequence (Q690N0 whole entry): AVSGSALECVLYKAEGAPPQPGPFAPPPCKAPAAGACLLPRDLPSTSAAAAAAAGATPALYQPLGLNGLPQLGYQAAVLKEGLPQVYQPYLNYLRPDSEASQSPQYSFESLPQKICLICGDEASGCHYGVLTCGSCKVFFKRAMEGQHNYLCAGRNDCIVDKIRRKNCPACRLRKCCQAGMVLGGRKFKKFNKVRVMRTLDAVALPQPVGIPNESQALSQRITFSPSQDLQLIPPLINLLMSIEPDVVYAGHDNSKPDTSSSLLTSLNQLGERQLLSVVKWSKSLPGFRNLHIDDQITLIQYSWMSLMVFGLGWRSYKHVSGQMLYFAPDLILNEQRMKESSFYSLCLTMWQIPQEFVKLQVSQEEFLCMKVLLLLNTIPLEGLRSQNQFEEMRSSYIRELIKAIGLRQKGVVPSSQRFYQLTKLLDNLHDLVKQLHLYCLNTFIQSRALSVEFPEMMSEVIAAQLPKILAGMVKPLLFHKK

Cytochrome P450 2C19 = Cytochrome P450 2C19 (Homo sapiens, UniProt P33261); details: bti-tn-5b1-4; further: in other assays of this panel Not Active means under 50% inhibition at 10 µM
Cytochrome P450 2C19, sequence (P33261 whole entry): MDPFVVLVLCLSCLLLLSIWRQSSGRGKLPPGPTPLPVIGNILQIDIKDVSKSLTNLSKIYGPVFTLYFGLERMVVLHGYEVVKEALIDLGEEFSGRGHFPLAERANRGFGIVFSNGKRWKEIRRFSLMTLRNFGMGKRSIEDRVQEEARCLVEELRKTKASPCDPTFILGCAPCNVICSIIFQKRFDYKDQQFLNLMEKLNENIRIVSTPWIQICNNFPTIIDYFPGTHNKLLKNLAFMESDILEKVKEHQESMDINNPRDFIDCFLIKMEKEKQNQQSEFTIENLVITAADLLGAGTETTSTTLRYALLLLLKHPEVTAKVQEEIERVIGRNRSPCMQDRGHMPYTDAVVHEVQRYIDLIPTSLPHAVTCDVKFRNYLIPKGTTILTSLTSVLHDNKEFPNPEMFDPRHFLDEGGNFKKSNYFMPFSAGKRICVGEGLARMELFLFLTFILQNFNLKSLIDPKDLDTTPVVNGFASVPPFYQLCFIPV

Epidermal growth factor receptor, sequence (P00533 whole entry): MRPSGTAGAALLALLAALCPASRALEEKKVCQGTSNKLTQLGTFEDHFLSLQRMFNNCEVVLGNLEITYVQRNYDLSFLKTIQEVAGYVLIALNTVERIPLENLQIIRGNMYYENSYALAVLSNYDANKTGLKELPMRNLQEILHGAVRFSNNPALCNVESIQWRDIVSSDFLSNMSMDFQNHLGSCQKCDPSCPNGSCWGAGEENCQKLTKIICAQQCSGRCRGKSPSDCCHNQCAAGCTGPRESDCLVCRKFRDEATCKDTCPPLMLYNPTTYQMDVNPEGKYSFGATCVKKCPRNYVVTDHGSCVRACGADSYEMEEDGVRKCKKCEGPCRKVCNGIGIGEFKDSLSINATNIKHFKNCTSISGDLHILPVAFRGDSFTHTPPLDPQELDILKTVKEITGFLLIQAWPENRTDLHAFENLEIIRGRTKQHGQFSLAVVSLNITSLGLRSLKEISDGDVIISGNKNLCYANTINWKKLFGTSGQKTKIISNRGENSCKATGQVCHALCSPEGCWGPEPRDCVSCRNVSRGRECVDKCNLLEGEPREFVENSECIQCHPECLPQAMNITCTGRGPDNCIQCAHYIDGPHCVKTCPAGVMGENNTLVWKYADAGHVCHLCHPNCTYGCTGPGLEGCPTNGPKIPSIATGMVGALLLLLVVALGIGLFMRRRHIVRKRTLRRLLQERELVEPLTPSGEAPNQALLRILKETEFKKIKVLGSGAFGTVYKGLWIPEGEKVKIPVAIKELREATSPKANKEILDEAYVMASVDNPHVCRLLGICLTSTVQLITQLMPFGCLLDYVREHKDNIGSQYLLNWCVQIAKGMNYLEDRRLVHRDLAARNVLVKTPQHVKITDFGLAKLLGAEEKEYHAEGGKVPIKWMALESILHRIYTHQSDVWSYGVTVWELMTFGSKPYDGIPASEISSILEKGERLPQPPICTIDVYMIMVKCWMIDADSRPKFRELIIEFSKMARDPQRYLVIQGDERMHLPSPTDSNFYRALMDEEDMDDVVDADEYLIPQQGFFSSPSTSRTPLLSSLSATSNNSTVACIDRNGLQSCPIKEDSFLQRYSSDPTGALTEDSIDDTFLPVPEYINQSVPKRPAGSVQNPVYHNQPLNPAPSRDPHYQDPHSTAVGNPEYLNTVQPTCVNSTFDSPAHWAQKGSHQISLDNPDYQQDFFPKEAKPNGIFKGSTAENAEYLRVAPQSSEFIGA
Delta-type opioid receptor, sequence (P41143 whole entry): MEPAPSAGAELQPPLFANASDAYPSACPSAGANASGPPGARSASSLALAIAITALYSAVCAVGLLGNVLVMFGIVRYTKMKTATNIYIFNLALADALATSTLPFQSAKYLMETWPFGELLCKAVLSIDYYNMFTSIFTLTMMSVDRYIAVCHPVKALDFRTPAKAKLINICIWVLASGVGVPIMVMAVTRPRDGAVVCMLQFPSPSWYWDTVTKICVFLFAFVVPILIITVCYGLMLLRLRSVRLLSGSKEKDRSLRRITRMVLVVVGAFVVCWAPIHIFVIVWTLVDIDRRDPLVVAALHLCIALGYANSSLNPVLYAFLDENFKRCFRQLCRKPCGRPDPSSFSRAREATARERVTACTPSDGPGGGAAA

Row | SMILES | IC50 [1] | IC50 [2] | IC50 [3] | IC50 [4] | IC50 (Progesterone receptor) | IC50 (Cytochrome P450 2C19) | Ki (Cytochrome P450 2C19) | Ki [1] | Ki [2] | Ki [3] | Ki [4] | Ki (Progesterone receptor) | IC50 (Progesterone receptor; read-out: IC50) | Ki (Progesterone receptor; read-out: Ki)
1 | COc1ccccc1C(=O)N1CCC(Cc2ccccc2)CC1 | Not Active | Not Active | Not Active | Not Active | Not Active | – | – | – | – | – | – | – | – | –
2 | Cc1ccccc1C(=O)N1CCC(Cc2ccccc2)CC1 | Not Active | Not Active | Not Active | Not Active | Not Active | – | – | – | – | – | – | – | – | –
3 | O=C1CC[C@H](N2C(=O)c3ccccc3C2=O)C(=O)N1 | Not Active | Not Active | Not Active | Not Active | Not Active | Not Active | Not Active | – | – | – | – | – | – | –
4 | N=C(Nc1ccccc1)Nc1ccccc1 | Not Active | Not Active | Not Active | Not Active | Not Active | Not Active | Not Active | – | – | – | – | – | – | –
5 | C[C@@H](O)[C@H](CO)NC(=O)[C@@H]1CSSC[C@H](NC(=O)[C@H](N)Cc2ccccc2)C(=O)N[C@@H](Cc2ccccc2)C(=O)N[C@H](Cc2c[nH]c3ccccc23)C(=O)N[C@@H](CCCCN)C(=O)N[C@@H]([C@@H](C)O)C(=O)N1 (H-[dF]CF[dW]KTC-{Threoninol(2S,3R)}; disulfide 2-7) | Not Active | Not Active | Not Active | Not Active | Not Active | Not Active | Not Active | – | – | – | – | – | – | –
6 | S=C=Nc1cccc2ccccc12 [1-NAPHTHYLISOTHIOCYANATE] | Not Active | Not Active | Not Active | Not Active | Not Active | Not Active | Not Active | – | – | – | – | – | – | –
7 | C[C@](O)(CS(=O)(=O)c1ccc(F)cc1)C(=O)Nc1ccc(C#N)c(C(F)(F)F)c1 [(R)-BICALUTAMIDE] | Not Active | Not Active | Not Active | Not Active | Not Active | – | – | – | – | – | – | – | – | –
8 | CCCC(=O)Nc1ccc(OCC(O)CNC(C)C)c(C(C)=O)c1 (configuration not stated) [ACEBUTOLOL] | Not Active | Not Active | Not Active | Not Active | Not Active | Not Active | Not Active | – | – | – | – | – | – | –
9 | CC(=O)Nc1ccc(O)cc1 [ACETAMINOPHEN] | Not Active | Not Active | Not Active | Not Active | Not Active | Not Active | Not Active | – | – | – | – | – | – | –
10 | COc1cc2c(c3oc(=O)c4c(c13)CCC4=O)[C@@H]1C=CO[C@@H]1O2 [AFLATOXIN] | Not Active | Not Active | Not Active | Not Active | Not Active | Not Active | Not Active | Not Active | Not Active | Not Active | Not Active | Not Active | – | –
11 | N=C(N)NC(=O)c1nc(Cl)c(N)nc1N [AMILORIDE] | Not Active | Not Active | Not Active | Not Active | Not Active | Not Active | Not Active | – | – | – | – | – | – | –
12 | Cc1cc(=O)n(-c2ccccc2)n1C [ANTIPYRINE] | Not Active | Not Active | Not Active | Not Active | Not Active | Not Active | Not Active | – | – | – | – | – | – | –
13 | CN1C(=O)COc2c(C(=O)NC3CN4CCC3CC4)cc(Cl)cc21 (configuration not stated) [AZASETRON] | Not Active | Not Active | Not Active | Not Active | Not Active | Not Active | Not Active | – | – | – | – | – | – | –
14 | O=NN(CCCl)C(=O)NCCCl [CARMUSTINE] | Not Active | Not Active | Not Active | Not Active | Not Active | – | – | – | – | – | – | – | – | –
15 | CC1=C(C(=O)O)N2C(=O)[C@@H](NC(=O)[C@H](N)c3ccccc3)[C@H]2SC1 [CEPHALEXIN ANHYDROUS] | Not Active | Not Active | Not Active | Not Active | Not Active | – | – | – | – | – | – | – | – | –
16 | O=C(N[C@H](CO)[C@H](O)c1ccc([N+](=O)[O-])cc1)C(Cl)Cl [CHLORAMPHENICOL] | Not Active | Not Active | Not Active | Not Active | Not Active | – | – | – | – | – | – | – | – | –
17 | C=C1CC[C@H](O)C/C1=C/C=C1\CCC[C@]2(C)[C@@H]([C@H](C)CCCC(C)C)CC[C@@H]12 [CHOLECALCIFEROL] | Not Active | Not Active | Not Active | Not Active | – | Not Active | Not Active | – | – | – | – | – | – | –
18 | CCOC(=O)C(C)(C)Oc1ccc(Cl)cc1 [CLOFIBRATE] | Not Active | Not Active | Not Active | Not Active | Not Active | – | – | – | – | – | – | – | – | –
19 | C[C@@H]1C[C@@H]([C@H](O)CC2CC(=O)NC(=O)C2)C(=O)[C@@H](C)C1 [CYCLOHEXIMIDE] | Not Active | Not Active | Not Active | Not Active | Not Active | – | – | – | – | – | – | – | – | –
20 | C/C=C/C[C@@H](C)[C@@H](O)[C@H]1C(=O)N[C@@H](CC)C(=O)N(C)CC(=O)N(C)[C@@H](CC(C)C)C(=O)N[C@@H](C(C)C)C(=O)N(C)[C@@H](CC(C)C)C(=O)N[C@@H](C)C(=O)N[C@H](C)C(=O)N(C)[C@@H](CC(C)C)C(=O)N(C)[C@@H](CC(C)C)C(=O)N(C)[C@@H](C(C)C)C(=O)N1C [CYCLOSPORINE] | Not Active | Not Active | Not Active | Not Active | Not Active | – | – | – | – | – | – | – | – | –
21 | NC(=O)NO [HYDROXYUREA] | Not Active | Not Active | Not Active | Not Active | Not Active | – | – | – | – | – | – | – | – | –
22 | COc1ccc2cc([C@H](C)C(=O)O)ccc2c1 [NAPROXEN] | Not Active | Not Active | Not Active | Not Active | Not Active | – | – | – | – | – | – | – | – | –
23 | CCN[C@@H]1C[C@H](N)[C@@H](O[C@H]2OC(CN)=CC[C@H]2N)[C@H](O)[C@H]1O[C@H]1OC[C@](C)(O)[C@H](NC)[C@H]1O [NETILMICIN] | Not Active | Not Active | Not Active | Not Active | Not Active | – | – | – | – | – | – | – | – | –
24 | COC(=O)C1=C(C)NC(C)=C(C(=O)OCC(C)C)C1c1ccccc1[N+](=O)[O-] (configuration not stated) [NISOLDIPINE] | Not Active | Not Active | Not Active | Not Active | Not Active | – | – | – | – | – | – | – | – | –
25 | CCOC(=O)C1=C(C)NC(C)=C(C(=O)OC)C1c1cccc([N+](=O)[O-])c1 (configuration not stated) [NITRENDIPINE] | Not Active | Not Active | Not Active | Not Active | Not Active | – | – | – | – | – | – | – | – | –
26 | C#C[C@]1(OC(C)=O)CC[C@H]2[C@@H]3CCC4=CC(=O)CC[C@@H]4[C@H]3CC[C@@]21C [NORETHINDRONE ACETATE] | Not Active | Not Active | Not Active | Not Active | – | – | – | – | – | – | – | – | 28 nM | 3.62 nM
27 | CCn1cc(C(=O)O)c(=O)c2cc(F)c(N3CCN(C)CC3)cc21 [PEFLOXACIN] | Not Active | Not Active | Not Active | Not Active | Not Active | – | – | – | – | – | – | – | – | –
28 | CCCCOc1ccc(OCCCN2CCOCC2)cc1 [PRAMOXINE] | Not Active | Not Active | Not Active | Not Active | – | – | – | – | – | – | – | – | – | –
29 | OC(CCN1CCCCC1)(c1ccccc1)C1CCCCC1 (configuration not stated) [TRIHEXYPHENIDYL] | Not Active | Not Active | Not Active | – | Not Active | Not Active | Not Active | – | – | – | – | – | – | –
